The results in this text go back to ChEMBL document CHEMBL4184086, “Sinopestalotiollides A-D, cytotoxic diphenyl ether derivatives from plant endophytic fungus Pestalotiopsis palmarum” (Bioorg Med Chem Lett, 2018).

pIC50: −log10 of the molar value.

What all share (assay type): functional, cell-based
One experiment has as its system A549. Put plainly: Cytotoxicity against human A549 cells by WST-8 assay.
Another experiment relates to HCT-116. Put plainly: Cytotoxicity against human HCT116 cells by WST-8 assay. On the technique in general: Formazan colour is commonly taken as a measure of viable cells.
The next experiment relates to HeLa. Put plainly: Cytotoxicity against human HeLa cells by WST-8 assay.

As for `COc1c(/C=C/C(C)(CO)OC)ccc2c1C(=O)OCc1cc(C)cc(O)c1O2` (configuration not stated), the negative logarithm of the IC50 (pIC50) (commonly the negative decadic logarithm of the IC50, by convention in mol/L) in the experiment on A549 was 5.67; in the experiment on HCT-116, 5.58; with HeLa, 5.92.

In the case of `COc1c(C(CO)C(C)C)ccc2c1C(=O)OCc1cc(C)cc(O)c1O2` (configuration not stated), the pIC50 in the experiment on A549 is 4.44; in the experiment on HCT-116, 4.73; with HeLa, 4.83.

On to `COc1cccc2c1C(=O)c1c(O)c3c(c(O)c1C2=O)C[C@@](O)(C(=O)CO)C[C@@H]3O[C@H]1C[C@H](N)[C@H](O)[C@H](C)O1` [DOXORUBICIN], for which the pIC50 in the experiment with HCT-116 is 5.62; in the experiment on HeLa, 5.05.

`C=C(C)C(O)Cc1ccc2c(c1OC)C(=O)OCc1cc(C)cc(O)c1O2` (configuration not stated): the pIC50 in the experiment with A549 is 4.35; in the experiment on HCT-116, 4.64; with HeLa, 4.89.

For the compound `C=C(C)C(CO)c1ccc2c(c1OC)C(=O)OCc1cc(C)cc(O)c1O2` (configuration not stated), the negative logarithm of the IC50 (pIC50) with A549 is 4.50; with HCT-116, 4.80; with HeLa it was 4.72.

In the case of `COC1=CC(=O)OC(CO)C1` (configuration not stated), the results for the negative-log IC50 (pIC50) in the experiment on A549, with HCT-116 and in the experiment on HeLa were 4.32, 4.61 and 4.81, respectively.
